Four compounds from patent US12383585B2, “Methods of treatment of infections using bacteria” (Decoy Biosystems, Inc., priority 2018, dated 2025) can be followed below.

Some results are limits rather than exact numbers.

For data set [1], the system named is AAV/HBV (human HBV genome, genotype D). The data set is described as follows: AAV/HBV mouse model, HBV inhibition (Example 4). In kind it is in vivo, C57BL/6 mouse. The settings on record: for inhibition of HBeAg production (plasma): day 28 of dosing (Day 59 after infection). The text has this: Adeno-associated virus/hepatitis B virus (AAV/HBV) is a recombinant AAV carrying replicable human HBV genome. Taking the advantage of the highly hepatotropic feature of genotype 8 AAV, the human HBV genome can be efficiently delivered to mouse liver cells. Infection of immune competent mice with AAV/HBV can result in long term HBV viremia, including release of human HBV virions, HBsAg and HBeAg into the blood, which mimics chronic HBV infection in patients. The AAV/HBV model can be used to evaluate the in vivo activity of various types of anti-HBV agents. Furthermore, this is an appropriate model for evaluation of immune modulators (see, for example Huang et al., Int. J. Onc. v39 pp1511-1519, 2011).
rAAV8-1.3HBV, genotype D, was purchased from Beijing FivePlus Molecular Medicine Institute (batch number A2018092406). The stock virus of 1×10^12 viral genome (v.g.)/mL was diluted to 5×10^11 v.g./mL with sterile phosphate-buffered saline (PBS) and 1×10^11 v.g. AAV/HBV in 200 μL was injected per 5 week old male C57BL/6 mouse 31 days prior to the initiation of dosing (day −31).
Blood samples (˜100 μL) were collected into K2-EDTA coated tubes via submandibular bleeding on days −17, −7 and −4. The samples were centrifuged at 7,000 g (4° C.) for 10 minutes for plasma collection. At least 40 μL plasma samples were prepared to determine the level of HBV-DNA by qPCR, and the levels of HBs Antigen (HBsAg) and HBe Antigen (HBeAg) by enzyme-linked immunosorbent assay (ELISA). Remaining plasma samples were stored at −80° C. for post-life assays. Based on the plasma levels of HBV DNA, HBsAg, HBeAg and body weights on days −17, −7 and −4, mice with qualified viral infection levels were selected and randomly divided into 7 groups with 5 mice in each group on day −1. All mice were evenly distributed in each group, to ensure no significant difference existed between each group in terms of HBV DNA, HBsAg, HBeAg level and body weight on day −4.
Animal groups were untreated, treated with Entecavir (ETV) at 0.005 mg/kg orally (p.o.) daily on days 0-34, Decoy at 2×10^8 killed bacteria per mouse administered tail vein i.v. on days 1, 2, 8, 9, 15, 16, 22, 23, 29 and 30, or ETV and Decoy. Plasma samples were obtained weekly an analyzed for HBV-DNA, HBsAg and HBeAg as described above.

For data set [2] the test system is unchanged. In words: AAV/HBV mouse model, long-term HBV inhibition with indomethacin (Example 5). It is filed as in vivo, C57BL/6 mouse. The settings on record: for inhibition of HBV DNA production (plasma): all groups given indomethacin 10 μg/mL in drinking water, ETV 0.1 mg/kg. The protocol: This experiment was conducted in order to determine if a non-steroidal anti-inflammatory drug (NSAID) could enhance anti-viral activity by Decoy bacteria, if the anti-viral activity of Decoy is lost after cessation of treatment, and the potential toxic effects of ETV, Decoy and ETV+Decoy treatment. The experiment was carried out as described in Example 4, except that the AAV/HBV virus was injected at day −29, relative to start of dosing. HBV-DNA, HBsAg and HBeAg levels in plasma were determined on days −15, −8 and −1, relative to start of dosing on day 0, and the ETV dose was increased to 0.1 mg/kg. In addition, all groups represented in FIGS. 3, 4, 5 and 6 were administered indomethacin (NSAID) daily (10 μg/mL in drinking water). Dosing was carried out for 5 weeks as in Example 4, with plasma levels of HBV-DNA, HBsAg and HBeAg determined weekly, as well as every other week for 27 weeks after cessation of treatment. Inhibitory activity was determined by comparing treated groups at each time point to the control (indomethacin alone) group at the same time-point by unpaired, non-parametric Mann-Whitney statistical analysis.
Upon termination, the liver from each mouse was divided into multiple sections, snap frozen in liquid nitrogen immediately upon collection and stored at −80° C. Liver sections were used for HBV DNA detection and additional sections from each mouse liver were fixed in 10% neutral buffered formalin (NB F) for about 24 hours, then transferred for routine dehydration and paraffin embedding. Paraffin blocks were sectioned for hematoxylin-eosin (H&E) staining and pathology analysis, as well immunohistochemistry (IHC) analysis for HBsAg and HBcAg.

The test system of data set [3] is human peripheral blood mononuclear cells (PBMCs). In words: Induction of cytokine secretion from human PBMCs in vitro (Luminex). To be noted: full titration peak mean. It is filed as cell-based. The protocol: Supernatants were harvested by centrifuging plates at 1,000 rpm for 10 minutes and stored at −80° C. Luminex analysis of cytokine levels was carried out with Millipore Human Cytokine/Chemokine Magnetic Bead panels HCYTOMAG-60K and HSTCMAG-28SK. Levels of cytokines were interpolated off a standard curve using a […] non-linear regression analysis where the fit=(A+((B−A)/(1+(((B−E)/(E−A))*((x/C)^D))))). The interpolated data was normalized to vehicle control or unstimulated control and analyzed. PBMCs from fresh normal peripheral blood leukapheresis paks (ALLCells, Alameda, CA) were isolated using a Ficoll gradient (Ficoll-Paque PLUS, Cat #17-144-02, density 1.077+/−0.001 g/mL from GE Healthcare Bio-Sciences, Pittsburgh, PA). The bacteria vehicle was phosphate-buffered saline (PBS) with no calcium and 2 mM MgCl2.
The experiment was carried out as described for Table 1.

Take `C=C1[C@H](CO)[C@@H](O)C[C@@H]1n1cnc2c(=O)[nH]c(N)nc21` [ETV, Entecavir]: the “time to significant inhibition of HBV DNA production after initiation of dosing” value in data set [1] (ETV 0.005 mg/kg p.o. daily) is at most 3 days. In data set [1] (by day 28 of dosing (day 59 after infection)), the “mice with plasma HBV DNA down to the lower limit of quantitation (120 copies/μL plasma)” value is reported as 5/5. In addition, the “inhibition of HBeAg production (plasma)” value is reported as “No inhibition” in data set [1] (without indomethacin) and “not” in data set [1] (without indomethacin, listed as Entecavir). Also, the “inhibition of HBV DNA production (plasma)” value is listed as “significantly inhibited” in data set [1] (vs no treatment group, ETV 0.005 mg/kg p.o. daily, Decoy 2×10^8 killed bacteria i.v. twice weekly) and “inhibited” in data set [2]. The “inhibition of HBsAg production (plasma)” value in data set [1] (without indomethacin) is “No inhibition”. For the same compound, the “inhibition of HBV DNA at termination (day 253)” value in data set [2] (27 weeks after cessation of treatment, in the presence of indomethacin) is given as “Statistically significant inhibition of HBV DNA was lost”. Besides, in data set [2] (27 weeks after the cessation of treatment, in the presence of indomethacin), the “inhibition of HBeAg expression in mouse livers” value is on record as “not”. Also, in data set [2] (ETV treatment 0.1 mg/kg, with indomethacin), the body weight loss entry is reported as “No body weight loss”.

Take CpG ODN 2006: in data set [3], the GM-CSF induction was 0 pg/mL, the IFNγ induction came to 7 pg/mL, the IL-1β induction was 1 pg/mL and the IL-6 induction amounted to 241 pg/mL. Further, in data set [3], the IL-8 induction is 2,436 pg/mL, the IL-10 induction is 374 pg/mL, the IL-12p70 induction is given as 4 pg/mL and the TNFα induction was 51 pg/mL.

Poly(I:C): in data set [3], the GM-CSF induction was 0 pg/mL, the IFNγ induction worked out at 103 pg/mL, the IL-1β induction is 22 pg/mL and the IL-6 induction worked out at 129 pg/mL. In data set [3], the IL-8 induction is 1,452 pg/mL, the IL-10 induction is reported as 8 pg/mL, the IL-12p70 induction came to 18 pg/mL and the TNFα induction came to 208 pg/mL.

Take `COc1ccc2c(c1)c(CC(=O)O)c(C)n2C(=O)c1ccc(Cl)cc1` [indomethacin]: the “inhibition of HBV DNA production (plasma)” value in data set [2] is on record as “did not inhibit”.
